This is an account of results in article PMC7934941, “Pharmacological chaperone action in humanized mouse models of MC4R-linked obesity” (JCI Insight, 2021).

One test deals with T1, WT-hMC4R (Homo sapiens, UniProt P32245).
T1 construct: expressed in transfected cells
Briefly: Melanocortin agonist cAMP production, WT receptor. The conditions noted are these: % of Emax of untreated WT-hMC4R upon 1 μM NDP-α-MSH. The class given is cell-based. The procedure: (§1) Data are the means ± SEM of 3 independent experiments.
(§2) Cells were kept on ice for 5 minutes before proceeding to cAMP measurement. […] For all assays, plates were then put at –80°C at least 90 minutes and thawed at RT on Heidolph Titramax 100 shaker at speed 1050 rpm. Cell lysates were then transferred to 384-well plates, lysed, and incubated with cAMP labeled with the dye d2 and anti-cAMP M antibody labeled with Cryptate (cAMP dynamic-2 kit, cisbio) according to the manufacturer’s protocol. Reading of the homogeneous time-resolved fluorescence signal was performed on an Artemis time-resolved fluorescence resonance energy transfer plate reader (Cosmo Bio USA).
In general terms: Changes in cAMP serve as a functional read-out for many G protein-coupled receptors.

A further test deals with T2, R165W-hMC4R (Homo sapiens, UniProt P32245, R165W).
T2 construct: expressed in transfected cells
Briefly: Melanocortin agonist cAMP production, mutant receptor. The class given is cell-based. The protocol: as §1, §2

Test [1] deals with hMC4R-KI, loxTB MC4R-null and nontransgenic mice. Briefly: Acute icv melanocortin agonist sensitivity, nocturnal food intake. The class given is in vivo, mouse. The following applies: homozygous loxTB MC4R-null mice. The protocol:
(A–C) Immunohistochemical labeling of MC4R-positive neurons. […] Inset in A: higher power magnification of boxed areas containing GFP immune reactive neurons (brown cytoplasmic reaction product). Arrows in the center and right insets indicate GFP-positive neurons. Scale bars: 100 μm (A), 50 μm (A, inset), […] (B) and 10 μm (C). […] Food intake was measured 4 hours postadministration in dark phase and reported in percentage.
Food consumption was then assessed between ZT10 and ZT15 (3 hours after lights off). Food consumption was then normalized relative to the basal food consumption measured the day before for each mouse (% food intake vs. basal) and is expressed as means ± SEM.
The guide cannulas were secured with screws and cranioplastic cement (Dentsply Canada). To prevent clogging and to reduce the potential for brain infection, sterile obturators (PlasticsOne) were inserted into the guide cannulas. Appropriate cannula placement was functionally verified before experiments using the dipsogenic effects of angiotensin 2 injections (5 ng) as positive control, 5 days after surgery.
The day prior to agonist sensitivity assay, basal food consumption was measured individually between Zeitgeber time 10 (ZT10) (10 hours after lights on) and ZT15 (3 hours after lights off). […] Food consumption was then assessed between ZT10 and ZT15. […]

The target in test [2] is human melanocortin type 4 receptor (WT) (human) (UniProt P32245). The following applies: scale: pEC50.
The target of test [3] is mouse melanocortin type 4 receptor (mouse) (UniProt P56450). The following applies: scale: pEC50.
Chain of mouse melanocortin type 4 receptor (mouse) (P56450 whole entry): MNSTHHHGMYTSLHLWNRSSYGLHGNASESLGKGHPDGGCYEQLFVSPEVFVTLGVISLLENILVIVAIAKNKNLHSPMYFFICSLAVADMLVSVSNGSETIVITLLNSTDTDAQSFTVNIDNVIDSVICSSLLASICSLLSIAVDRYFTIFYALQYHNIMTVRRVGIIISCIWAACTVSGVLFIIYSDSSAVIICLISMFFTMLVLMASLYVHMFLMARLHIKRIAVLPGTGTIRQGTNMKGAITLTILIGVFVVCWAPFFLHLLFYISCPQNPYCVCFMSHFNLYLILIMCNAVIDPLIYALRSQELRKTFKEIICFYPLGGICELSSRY

T1 sequence (P32245 whole entry): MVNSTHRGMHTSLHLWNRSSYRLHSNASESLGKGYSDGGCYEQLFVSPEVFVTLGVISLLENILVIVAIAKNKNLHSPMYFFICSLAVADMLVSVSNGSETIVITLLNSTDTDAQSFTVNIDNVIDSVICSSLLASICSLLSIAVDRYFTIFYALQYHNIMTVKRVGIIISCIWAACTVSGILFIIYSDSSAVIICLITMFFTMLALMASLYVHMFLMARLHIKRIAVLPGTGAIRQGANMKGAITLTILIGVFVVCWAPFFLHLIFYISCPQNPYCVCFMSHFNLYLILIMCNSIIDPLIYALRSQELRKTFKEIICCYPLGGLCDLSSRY
Chain of human melanocortin type 4 receptor (WT) (human) (P32245 whole entry): as above
T2 sequence (P32245 whole entry R165W): as the sequence (P32245 whole entry) above, with R165W counted along it

The term Emax denotes the greatest response seen or fitted, relative to the assay's reference. Consider `CSCC[C@H](NC(=O)[C@H](CCCNC(=N)N)NC(=O)[C@H](Cc1ccc(O)cc1)NC(=O)[C@@H]1CCCN1C(=O)CNC(=O)[C@H](CCC(=O)O)NC(=O)[C@H](CC(=O)O)NC(=O)[C@H](CCCCN)NC(=O)[C@H](CCCCN)NC(=O)[C@H](CCC(=O)O)NC(=O)[C@H](C)N)C(=O)N[C@@H](CCC(=O)O)C(=O)N[C@@H](Cc1c[nH]cn1)C(=O)N[C@@H](Cc1ccccc1)C(=O)N[C@@H](CCCNC(=N)N)C(=O)N[C@@H](Cc1c[nH]c2ccccc12)C(=O)NCC(=O)N[C@@H](CO)C(=O)N1CCC[C@H]1C(=O)N1CCC[C@H]1C(=O)N[C@@H](CCCCN)C(=O)N[C@@H](CC(=O)O)C(=O)O` [β-MSH], for which the Emax at WT-hMC4R (WT-hMC4R after 10 μM UM0130866 for 15 hours, washed) came out at 92.7 ± 15.8%; on WT-hMC4R (WT-hMC4R, untreated), 112 ± 2.55%; on R165W-hMC4R it was 115 ± 43.5%. In addition, the “food intake response (ZT10-ZT15)” value in test [1] is reported as “absence of anorexic response”.
“α–melanocyte-stimulating hormone (peptide)”: the potency (pEC50) of α-MSH to activate Gs, BRET-based biosensor directly monitoring Gs activation in test [2] came out at 7.48; in test [3], 8.64.
